Data as given in patent publication US20250206724A1, “SUBSTITUTED 3-AMINO INDAZOLE DERIVATIVES AS KINASE INHIBITORS” (NERVIANO MEDICAL SCIENCES S.R.L., priority 2022, published 2025).
Structures can show the parent of a compound that is named as a salt.

Molecular target: T1, CDK11A (Homo sapiens, UniProt Q9UQ88)
T1 sequence (Q9UQ88 346-783): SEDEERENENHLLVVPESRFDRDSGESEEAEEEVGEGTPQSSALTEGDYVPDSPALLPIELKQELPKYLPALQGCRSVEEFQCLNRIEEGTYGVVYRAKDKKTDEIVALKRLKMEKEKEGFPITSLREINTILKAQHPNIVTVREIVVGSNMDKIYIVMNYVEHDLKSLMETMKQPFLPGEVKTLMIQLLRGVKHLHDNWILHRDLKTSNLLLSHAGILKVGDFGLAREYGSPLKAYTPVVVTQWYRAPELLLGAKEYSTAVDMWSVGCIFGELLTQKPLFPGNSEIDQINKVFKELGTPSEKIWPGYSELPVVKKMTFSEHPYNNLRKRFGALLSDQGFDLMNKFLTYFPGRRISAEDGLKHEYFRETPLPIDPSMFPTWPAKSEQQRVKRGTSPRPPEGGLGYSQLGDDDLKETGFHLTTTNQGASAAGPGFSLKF
Details: displacement of SNS-032-Atto590 probe (0.002 μM) from CDK11A-p58 (0.032 uM), fluorescence polarization
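Also: compound preincubated 30 min with CDK11A-p58, then probe added and polarization (mP) read 15 min later, 0% displacement is probe plus enzyme, 100% is probe alone.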

Row | DC50 | SMILES
1 | 78 nM | O=C(Nc1n[nH]c2ccc(-c3ccccc3)cc12)[C@@H]1CCCNC1 [cpd 49, (3R)-N-(5-Phenyl-1H-indazol-3-yl)piperidine-3-carboxamide hydrochloride]
2 | 164 nM | COC(=O)c1cc(-c2ccc3[nH]nc(NC(=O)[C@@H]4CCCNC4)c3c2)c(F)cc1F [cpd 50, Methyl 2,4-difluoro-5-(3-{[(3R)-piperidin-3-ylcarbonyl]amino}-1H-indazol-5-yl)benzoate hydrochloride]
3 | 42 nM | O=C(Nc1n[nH]c2ccc(-c3cc(F)ccc3Cl)cc12)[C@@H]1CCCNC1 [cpd 52, (3R)-N-[5-(2-Chloro-5-fluorophenyl)-1H-indazol-3-yl]piperidine-3-carboxamide hydrochloride]
4 | 30 nM | N#Cc1ccc(C#N)c(-c2ccc3[nH]nc(NC(=O)[C@@H]4CCCNC4)c3c2)c1 [cpd 53, (3R)-N-[5-(2,5-Dicyanophenyl)-1H-indazol-3-yl]piperidine-3-carboxamide hydrochloride]
5 | 102 nM | COC(=O)c1cc(-c2ccc3[nH]nc(NC(=O)[C@@H]4CCNC4)c3c2)c(Cl)cc1N [cpd 54, Methyl 2-amino-4-chloro-5-(3-{[(3R)-pyrrolidin-3-ylcarbonyl]amino}-1H-indazol-5-yl)benzoate dihydrochloride]
6 | 90 nM | CNC(=O)c1ccc(C#N)c(-c2ccc3[nH]nc(NC(=O)[C@@H]4CCCNC4)c3c2)c1 [cpd 55, (3R)-N-{5-[2-Cyano-5-(methylcarbamoyl)phenyl]-1H-indazol-3-yl}piperidine-3-carboxamide hydrochloride]
7 | 100 nM | CC(C)OC(=O)c1ccc(Cl)c(-c2ccc3[nH]nc(NC(=O)[C@@H]4CCCNC4)c3c2)c1 [cpd 56, Propan-2-yl 4-chloro-3-(3-{[(3R)-piperidin-3-ylcarbonyl]amino}-1H-indazol-5-yl)benzoate hydrochloride]
8 | 45 nM | COC(=O)c1ccc(Cl)c(-c2ccc3[nH]nc(NC(=O)[C@@H]4CCCNC4)c3c2)c1Cl [cpd 57, Methyl 2,4-dichloro-3-(3-{[(3R)-piperidin-3-ylcarbonyl]amino}-1H-indazol-5-yl)benzoate hydrochloride]
9 | 20 nM | O=C(Nc1n[nH]c2ccc(-c3cc(-c4ncon4)ccc3Cl)cc12)[C@@H]1CCCNC1 [cpd 58, (3R)-N-{5-[2-Chloro-5-(1,2,4-oxadiazol-3-yl)phenyl]-1H-indazol-3-yl}piperidine-3-carboxamide dihydrochloride]
10 | 57 nM | O=C(Nc1n[nH]c2ccc(-c3cc(-c4nnco4)ccc3Cl)cc12)[C@@H]1CCCNC1 [cpd 59, (3R)-N-{5-[2-Chloro-5-(1,3,4-oxadiazol-2-yl)phenyl]-1H-indazol-3-yl}piperidine-3-carboxamide trifluoroacetate]
11 | 163 nM | Cc1nc(-c2ccc(Cl)c(-c3ccc4[nH]nc(NC(=O)[C@@H]5CCCNC5)c4c3)c2)no1 [cpd 60, (3R)-N-{5-[2-Chloro-5-(5-methyl-1,2,4-oxadiazol-3-yl)phenyl]-1H-indazol-3-yl}piperidine-3-carboxamide dihydrochloride]
12 | 139 nM | N#Cc1ccc(Cl)c(-c2ccc3[nH]nc(NC(=O)C4CCNCC4)c3c2)c1 [cpd 61, N-[5-(2-Chloro-5-cyanophenyl)-1H-indazol-3-yl]piperidine-4-carboxamide hydrochloride]
13 | 148 nM | CN(C)C1CC(C(=O)Nc2n[nH]c3ccc(-c4ccc(O)cc4Cl)cc23)C1 (stereo not drawn) [cpd 62, N-[5-(2-Chloro-4-hydroxyphenyl)-1H-indazol-3-yl]-3-(dimethylamino)cyclobutanecarboxamide hydrochloride]
14 | 48 nM | CNC1CC(C(=O)Nc2n[nH]c3ccc(-c4ccc(O)cc4Cl)cc23)C1 (stereo not drawn) [cpd 63, N-[5-(2-Chloro-4-hydroxyphenyl)-1H-indazol-3-yl]-3-(methylamino)cyclobutanecarboxamide hydrochloride]
15 | 66 nM | CN1CCC(C(=O)Nc2n[nH]c3ccc(-c4c(F)cccc4Cl)cc23)CC1 [cpd 64, N-[5-(2-Chloro-6-fluorophenyl)-1H-indazol-3-yl]-1-methylpiperidine-4-carboxamide hydrochloride]
16 | 110 nM | CCCCN1CCC(C(=O)Nc2n[nH]c3ccc(-c4c(F)cccc4Cl)cc23)CC1 [cpd 65, 1-Butyl-N-[5-(2-chloro-6-fluorophenyl)-1H-indazol-3-yl]piperidine-4-carboxamide hydrochloride]
17 | 58 nM | NCCCN1CCC(C(=O)Nc2n[nH]c3ccc(-c4c(F)cccc4Cl)cc23)CC1 [cpd 66, 1-(3-Aminopropyl)-N-[5-(2-chloro-6-fluorophenyl)-1H-indazol-3-yl]piperidine-4-carboxamide dihydrochloride]
18 | 151 nM | COCC(C)N1CCC(C(=O)Nc2n[nH]c3ccc(-c4c(F)cccc4Cl)cc23)CC1 (stereo not drawn) [cpd 67, N-[5-(2-Chloro-6-fluorophenyl)-1H-indazol-3-yl]-1-(1-methoxypropan-2-yl)piperidine-4-carboxamide hydrochloride]
19 | 85 nM | CN1CCC(C(=O)Nc2n[nH]c3ccc(-c4c(Cl)cccc4Cl)cc23)CC1 [cpd 68, N-[5-(2,6-Dichlorophenyl)-1H-indazol-3-yl]-1-methylpiperidine-4-carboxamide]
20 | 122 nM | CCCCN1CCC(C(=O)Nc2n[nH]c3ccc(-c4c(Cl)cccc4Cl)cc23)CC1 [cpd 69, 1-Butyl-N-[5-(2,6-dichlorophenyl)-1H-indazol-3-yl]piperidine-4-carboxamide]
21 | 136 nM | CC(C)CN1CCC(C(=O)Nc2n[nH]c3ccc(-c4c(Cl)cccc4Cl)cc23)CC1 [cpd 70, N-[5-(2,6-Dichlorophenyl)-1H-indazol-3-yl]-1-(2-methylpropyl)piperidine-4-carboxamide]
22 | 135 nM | CC(C)(CO)CN1CCC(C(=O)Nc2n[nH]c3ccc(-c4c(Cl)cccc4Cl)cc23)CC1 [cpd 71, N-[5-(2,6-Dichlorophenyl)-1H-indazol-3-yl]-1-(3-hydroxy-2,2-dimethylpropyl)piperidine-4-carboxamide]
23 | 166 nM | Cc1ccc(Cl)c(-c2ccc3[nH]nc(NC(=O)C4CCN(C)CC4)c3c2)c1F [cpd 72, N-[5-(6-Chloro-2-fluoro-3-methylphenyl)-1H-indazol-3-yl]-1-methylpiperidine-4-carboxamide hydrochloride]
24 | 476 nM | Cc1ccc(F)c(-c2ccc3[nH]nc(NC(=O)C4CCN(C)CC4)c3c2)c1Cl [cpd 73, N-[5-(2-Chloro-6-fluoro-3-methylphenyl)-1H-indazol-3-yl]-1-methylpiperidine-4-carboxamide hydrochloride]
25 | 446 nM | CN1CCC(C(=O)Nc2n[nH]c3ccc(-c4cc(CO)ccc4Cl)cc23)CC1 [cpd 77, N-{5-[2-Chloro-5-(hydroxymethyl)phenyl]-1H-indazol-3-yl}-1-methylpiperidine-4-carboxamide p-toluensulfonate]
26 | 308 nM | CN1CCC(C(=O)Nc2n[nH]c3ccc(-c4ccccc4F)cc23)CC1 [cpd 78, N-[5-(2-Fluorophenyl)-1H-indazol-3-yl]-1-methylpiperidine-4-carboxamide hydrochloride]
27 | 277 nM | CN1CCC(C(=O)Nc2n[nH]c3ccc(-c4ccccc4C#N)cc23)CC1 [cpd 79, N-[5-(2-Cyanophenyl)-1H-indazol-3-yl]-1-methylpiperidine-4-carboxamide p-toluensulfonate]
